In patent US20260184710A1, “CASITAS B-LINEAGE LYMPHOMA PROTOONCOGENE B (CBL-B) DEGRADING COMPOUNDS AND ASSOCIATED METHODS OF USE” (Arvinas Operations, Inc., priority 2022, published 2026):
pIC50: −log10 of the molar value.

Columns and labels:
[1] = target: T1, Cbl-b (Homo sapiens, UniProt Q13191); assay: Cbl-b Degradation Method B (Nano-Glo HiBiT lytic detection); assay type: cell-based; conditions: Cbl-b-HiBit KI Jurkat Cells, incubated at least 6-24 hours; for Cbl-b Degredation Method B Dmax (%) / Dmax: maximum degradation observed; for Dmax: read-out: Cbl-b Degredation Method B Dmax (%)
T1 construct: Cbl-b-HiBit KI Jurkat Cells were purchased from Promega; host or cells: Cbl-b-HiBiT knock-in Jurkat cells
T1 sequence (Q13191 whole entry): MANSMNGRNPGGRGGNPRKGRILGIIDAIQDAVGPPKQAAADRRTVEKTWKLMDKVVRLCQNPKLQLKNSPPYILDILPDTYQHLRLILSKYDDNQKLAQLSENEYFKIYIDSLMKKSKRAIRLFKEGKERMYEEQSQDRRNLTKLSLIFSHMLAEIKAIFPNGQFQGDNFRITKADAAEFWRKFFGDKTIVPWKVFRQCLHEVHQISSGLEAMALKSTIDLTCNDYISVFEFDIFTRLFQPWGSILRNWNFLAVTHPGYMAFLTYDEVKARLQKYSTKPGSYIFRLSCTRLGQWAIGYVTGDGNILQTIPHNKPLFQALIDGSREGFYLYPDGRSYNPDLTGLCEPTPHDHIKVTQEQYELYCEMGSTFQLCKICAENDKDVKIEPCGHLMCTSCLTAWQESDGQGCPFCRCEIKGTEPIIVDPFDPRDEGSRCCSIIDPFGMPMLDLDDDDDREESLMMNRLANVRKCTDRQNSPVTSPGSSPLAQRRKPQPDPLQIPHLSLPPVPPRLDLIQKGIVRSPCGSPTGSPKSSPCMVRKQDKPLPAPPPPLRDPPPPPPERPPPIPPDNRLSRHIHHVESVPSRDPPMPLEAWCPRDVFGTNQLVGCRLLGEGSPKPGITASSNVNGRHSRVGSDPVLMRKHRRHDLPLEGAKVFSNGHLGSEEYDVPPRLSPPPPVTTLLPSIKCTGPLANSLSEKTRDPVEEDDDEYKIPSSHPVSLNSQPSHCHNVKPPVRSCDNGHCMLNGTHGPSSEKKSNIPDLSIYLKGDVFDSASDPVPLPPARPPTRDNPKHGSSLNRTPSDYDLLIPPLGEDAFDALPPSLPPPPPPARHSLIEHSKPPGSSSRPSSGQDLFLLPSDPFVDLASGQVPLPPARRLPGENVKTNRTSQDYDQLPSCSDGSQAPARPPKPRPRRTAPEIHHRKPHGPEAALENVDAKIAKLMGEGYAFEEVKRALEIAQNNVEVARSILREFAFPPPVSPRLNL
How it was run: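 Cbl-b-HiBiT knock-in Jurkat cells (20,000/well) were treated after ~24 h plating with an 11-point 1:3 series for 6-24 h at 37° C. Remaining Cbl-b measured by Nano-Glo HiBiT lytic luminescence. DC50 and Dmax expressed as % of control.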

[2] = target: T1, Cbl-b; assay: Cbl-b Degradation Method A (FACS, anti-Cbl-b antibody staining); assay type: cell-based; conditions: Cbl-b-HiBit KI Jurkat Cells, incubated at least 20 hours; for Dmax: Jurkat, read-out: Cbl-b Degredation Method A Dmax (%)
How it was run: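 Cbl-b-HiBit KI Jurkat cells treated with compound for at least 20 h at 37 °C, then fixed, permeabilized and stained with anti-Cbl-b antibody plus anti-rabbit AF488 secondary. Cbl-b levels read by FACS; DC50 and Dmax (percent of control) derived.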

[3] = half maximal degradation, read-out: Cbl-b Degredation Method B IC50
[4] = half maximal degradation, read-out: Cbl-b Degredation Method A IC50

Structure (SMILES) | DC50 [1, 3] | Cbl-b Degredation Method B Dmax (%) [1] | DC50 [2, 4] | Dmax ([2]; maximum degradation observed) | Dmax [1] | pIC50 [1, 3] | pIC50 [2, 4] | Cbl-b Degredation Method A Dmax (%) ([2]; maximum degradation observed)
C[C@@H]1c2nc(N3CCC(O[C@H]4CC[C@H](CN5CCN(Cc6cc7c(c(C(F)(F)F)c6)CN(c6cccc(C8(Cc9nncn9C)CC(C#N)C8)c6)C7=O)C6(CC6)C5)CC4)CC3)ccc2C(=O)N1C1CCC(=O)NC1=O (single isomer, unassigned) [Example 304, (1r***,3r***)-3-[(4-methyl-4H-1,2,4-triazol-3-yl)methyl]-3-(3-{1-oxo-6-[(7-{[(1r**,4r**)-4-({1-[(7R*)-6-(2,6-dioxopiperidin-3-yl)-7-methyl-5-oxo-5H,6H,7H-pyrrolo[3,4-b]pyridin-2-yl]piperidin-4-yl}oxy)cyclohexyl]methyl}-4,7-diazaspiro[2.5]octan-4-yl)methyl]-4-(trifluoromethyl)-2,3-dihydro-1H-isoindol-2-yl}phenyl)cyclobutane-1-carbonitrile] | < 5 nM | C (C ≤ 35) | 50 to 500 nM | 35 to 70% | – | – | – | –
Cn1cnnc1CC1(c2cccc(N3Cc4c(cc(NCC[C@H]5CC[C@H](OC6CCN(c7ccc8c(c7F)CN(C7CCC(=O)NC7=O)C8=O)CC6)CC5)cc4C(F)(F)F)C3=O)c2)COC1 (some centres unmarked) [Example 17, 3-[4-fluoro-5-[4-[4-[2-[[2-[3-[3-[(4-methyl-1,2,4-triazol-3-yl)methyl]oxetan-3-yl]phenyl]-3-oxo-7-(trifluoromethyl)isoindolin-5-yl]amino]ethyl]cyclohexoxy]-1-piperidyl]-1-oxo-isoindolin-2-yl]piperidine-2,6-dione] | > 500 nM | – | > 500 nM | – | – | – | – | –
Cc1cc(N2CCC(CN3CCC4(C3)CN(c3cc5c(c(C(F)(F)F)c3)CN(c3cccc([C@]6(Cc7nncn7C)C[C@@H](C#N)C6)c3)C5=O)C4)CC2)c(F)c2c1C(=O)N(C1CCC(=O)NC1=O)C2 (some centres unmarked) [Example 176, (1r,3r)-3-(3-{6-[6-({1-[2-(2,6-dioxopiperidin-3-yl)-4-fluoro-7-methyl-1-oxo-2,3-dihydro-1H-isoindol-5-yl]piperidin-4-yl}methyl)-2,6-diazaspiro[3.4]octan-2-yl]-1-oxo-4-(trifluoromethyl)-2,3-dihydro-1H-isoindol-2-yl}phenyl)-3-[(4-methyl-4H-1,2,4-triazol-3-yl)methyl]cyclobutane-1-carbonitrile] | < 5 nM | – | 5 to 50 nM | 35 to 70% | 35 to 70% | – | – | –
Cn1cnnc1CC1(c2cccc(N3Cc4c(cc(N5CC6(CCN(c7cc8c(cc7F)C(=O)N(C7CCC(=O)NC7=O)C8=O)CC6)C5)cc4C(F)(F)F)C3=O)c2)COC1 (centres unmarked) [Example 116, 2-(2,6-dioxopiperidin-3-yl)-5-fluoro-6-{2-[2-(3-{3-[(4-methyl-4H-1,2,4-triazol-3-yl)methyl]oxetan-3-yl}phenyl)-3-oxo-7-(trifluoromethyl)-2,3-dihydro-1H-isoindol-5-yl]-2,7-diazaspiro[3.5]nonan-7-yl}-2,3-dihydro-1H-isoindole-1,3-dione] | > 500 nM | – | > 500 nM | – | – | – | – | –
Cc1cc(N2CCC(C(C)(C)N3CCC4(CC3)CN(c3cc5c(c(C(F)(F)F)c3)CN(c3cccc([C@]6(Cc7nncn7C)C[C@@H](C#N)C6)c3)C5=O)C4)CC2)c(F)c2c1C(=O)N([C@@H]1CCC(=O)NC1=O)C2 [Example 278, (1r, 3r)-3-(3-{6-[7-(2-{1-[2-(2,6-dioxopiperidin-3-yl)-4-fluoro-7-methyl-1-oxo-2,3-dihydro-1H-isoindol-5-yl]piperidin-4-yl}propan-2-yl)-2,7-diazaspiro[3.5]nonan-2-yl]-1-oxo-4-(trifluoromethyl)-2,3-dihydro-1H-isoindol-2-yl}phenyl)-3-[(4-methyl-4H-1,2,4-triazol-3-yl)methyl]cyclobutane-1-carbonitrile] | – | C (C ≤ 35) | – | – | – | 7.30 to 8.30 | 6.30 to 7.30 | B (35 < B < 70)
Cn1cnnc1CC1(c2cccc(N3Cc4c(cc(N5CC6(CCN(CC7CCN(c8ccc9c(c8)C(=O)N(C8CCC(=O)NC8=O)C9=O)CC7)CC6)C5)cc4C(F)(F)F)C3=O)c2)COC1 (centres unmarked) [Example 115, 2-(2,6-dioxopiperidin-3-yl)-5-[4-({2-[2-(3-{3-[(4-methyl-4H-1,2,4-triazol-3-yl)methyl]oxetan-3-yl}phenyl)-3-oxo-7-(trifluoromethyl)-2,3-dihydro-1H-isoindol-5-yl]-2,7-diazaspiro[3.5]nonan-7-yl}methyl)piperidin-1-yl]-2,3-dihydro-1H-isoindole-1,3-dione] | 5 to 50 nM | – | 5 to 50 nM | 35 to 70% | 35 to 70% | – | – | –
Cn1cnnc1C(c1cccc(N2Cc3c(cc(CN4CCC[C@H](CN5CCN(C[C@H]6CC[C@@H](OC7CCN(c8ccc9c(c8F)CN(C8CCC(=O)NC8=O)C9=O)CC7)CC6)CC5)C4)cc3C(F)(F)F)C2=O)c1)C1CCC1 (stereo partly drawn) [Example 158, 3-[4-fluoro-1-oxo-5-(4-{[(1r,4r)-4-[(4-{[(3S)-1-[(2-{3-[cyclobutyl(4-methyl-4H-1,2,4-triazol-3-yl)methyl]phenyl}-3-oxo-7-(trifluoromethyl)-2,3-dihydro-1H-isoindol-5-yl)methyl]piperidin-3-yl]methyl}piperazin-1-yl)methyl]cyclohexyl]oxy}piperidin-1-yl)-2,3-dihydro-1H-isoindol-2-yl]piperidine-2,6-dione] | < 5 nM | – | < 5 nM | > 70% | 35 to 70% | – | – | –
Cn1cnnc1C[C@]1(c2cccc(N3Cc4c(cc(CN5CCN(C[C@H]6CC[C@H](OC7CCN(c8cccc9c8n(C)c(=O)n9C8CCC(=O)NC8=O)CC7)CC6)CC5(C)C)cc4C(F)(F)F)C3=O)c2)C[C@H](C#N)C1 (some centres unmarked) [Example 301, (1r,3r)-3-(3-{6-[(2,2-dimethyl-4-{[(1r,4r)-4-({1-[1-(2,6-dioxopiperidin-3-yl)-3-methyl-2-oxo-2,3-dihydro-1H-1,3-benzodiazol-4-yl]piperidin-4-yl}oxy)cyclohexyl]methyl}piperazin-1-yl)methyl]-1-oxo-4-(trifluoromethyl)-2,3-dihydro-1H-isoindol-2-yl}phenyl)-3-[(4-methyl-4H-1,2,4-triazol-3-yl)methyl]cyclobutane-1-carbonitrile] | < 5 nM | C (C ≤ 35) | 50 to 500 nM | > 70% | – | – | – | –

The remaining lines, values ahead:

DC50 [1, 3] | Cbl-b Degredation Method B Dmax (%) [1] | DC50 [2, 4] | Dmax ([2]; maximum degradation observed) | Dmax [1] | pIC50 [1, 3] | pIC50 [2, 4] | Cbl-b Degredation Method A Dmax (%) ([2]; maximum degradation observed) | Structure (SMILES)
< 5 nM | – | < 5 nM | > 70% | 35 to 70% | – | – | – | Cn1cnnc1C[C@]1(c2cccc(N3Cc4c(cc(CN5CCN(C[C@H]6CC[C@H](OC7CCN(c8ccc9c(c8F)CN(C8CCC(=O)NC8=O)C9=O)CC7)CC6)CC5)cc4C(F)(F)F)C3=O)c2)C[C@H](C#N)C1 (some centres unmarked) [Example 167, (1r,3r)-3-[(4-methyl-4H-1,2,4-triazol-3-yl)methyl]-3-(3-{1-oxo-6-[(4-{[(1r,4r)-4-({1-[2-(2,6-dioxopiperidin-3-yl)-4-fluoro-1-oxo-2,3-dihydro-1H-isoindol-5-yl]piperidin-4-yl}oxy)cyclohexyl]methyl}piperazin-1-yl)methyl]-4-(trifluoromethyl)-2,3-dihydro-1H-isoindol-2-yl}phenyl)cyclobutane-1-carbonitrile]
5 to 50 nM | – | 5 to 50 nM | 35 to 70% | 35 to 70% | – | – | – | Cn1cnnc1C[C@]1(c2cccc(N3Cc4c(cc(N5CC6(CCN(CC7CCN(c8ccc9c(c8)C(=O)N(C8CCC(=O)NC8=O)C9=O)CC7)CC6)C5)cc4C(F)(F)F)C3=O)c2)C[C@H](C#N)C1 (some centres unmarked) [Example 136, (1r,3r)-3-(3-{6-[7-({1-[2-(2,6-dioxopiperidin-3-yl)-1,3-dioxo-2,3-dihydro-1H-isoindol-5-yl]piperidin-4-yl}methyl)-2,7-diazaspiro[3.5]nonan-2-yl]-1-oxo-4-(trifluoromethyl)-2,3-dihydro-1H-isoindol-2-yl}phenyl)-3-[(4-methyl-4H-1,2,4-triazol-3-yl)methyl]cyclobutane-1-carbonitrile]
< 5 nM | – | < 5 nM | > 70% | > 70% | – | – | – | CC1CN(C[C@H]2CC[C@@H](OC3CCN(c4ccc5c(c4F)CN(C4CCC(=O)NC4=O)C5=O)CC3)CC2)CCN1C[C@H]1CCCN(Cc2cc3c(c(C(F)(F)F)c2)CN(c2cccc(C4(Cc5nncn5C)COC4)c2)C3=O)C1 (stereo partly drawn) [Example 166, 3-[4-fluoro-1-oxo-5-(4-{[(1r,4r)-4-[(3-methyl-4-{[(3S)-1-{[2-(3-{3-[(4-methyl-4H-1,2,4-triazol-3-yl)methyl]oxetan-3-yl}phenyl)-3-oxo-7-(trifluoromethyl)-2,3-dihydro-1H-isoindol-5-yl]methyl}piperidin-3-yl]methyl}piperazin-1-yl)methyl]cyclohexyl]oxy}piperidin-1-yl)-2,3-dihydro-1H-isoindol-2-yl]piperidine-2,6-dione]
5 to 50 nM | C (C ≤ 35) | 50 to 500 nM | 35 to 70% | – | – | – | – | Cn1cnnc1C[C@]1(c2cccc(N3Cc4c(cc(CN5CCN(C[C@H]6CC[C@H](OC7CCN(c8cccc9c8nc(OC(F)F)n9C8CCC(=O)NC8=O)CC7)CC6)CC5(C)C)cc4C(F)(F)F)C3=O)c2)C[C@H](C#N)C1 (some centres unmarked) [Example 325, (1r,3r)-3-(3-{6-[(2,2-dimethyl-4-{[(1r,4r)-4-({1-[2-(difluoromethoxy)-1-(2,6-dioxopiperidin-3-yl)-1H-1,3-benzodiazol-4-yl]piperidin-4-yl}oxy)cyclohexyl]methyl}piperazin-1-yl)methyl]-1-oxo-4-(trifluoromethyl)-2,3-dihydro-1H-isoindol-2-yl}phenyl)-3-[(4-methyl-4H-1,2,4-triazol-3-yl)methyl]cyclobutane-1-carbonitrile]
